Experimental data as given in patent US9790169B2, “IDO inhibitors” (BRISTOL-MYERS SQUIBB COMPANY, priority 2015, dated 2017).

target: human IDO1 (Homo sapiens, UniProt P14902); assay: Assessment of human IDO-1 inhibitory activity in Hela cells (Interferon-gamma stimulated HeLa cells, Ehrlich reagent, absorbance 490 nm); assay type: cell-based; design: endogenous in cells; host or cells: HeLa cells stimulated with interferon-gamma; settings: Hela Human IDO-1 cellular assay
Method in brief: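 IDO activity induced by 18 h IFN-γ (human 10 ng/ml or murine 5 ng/ml, final) after 1 h compound pre-treatment of HeLa cells at 37 °C. Supernatant kynurenine detected via Ehrlich reagent absorbance at 490 nm following 3% TCA at 50 °C; IC50 set against no-IFN-γ and untreated-stimulated controls.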

human IDO1, sequence (P14902 whole entry): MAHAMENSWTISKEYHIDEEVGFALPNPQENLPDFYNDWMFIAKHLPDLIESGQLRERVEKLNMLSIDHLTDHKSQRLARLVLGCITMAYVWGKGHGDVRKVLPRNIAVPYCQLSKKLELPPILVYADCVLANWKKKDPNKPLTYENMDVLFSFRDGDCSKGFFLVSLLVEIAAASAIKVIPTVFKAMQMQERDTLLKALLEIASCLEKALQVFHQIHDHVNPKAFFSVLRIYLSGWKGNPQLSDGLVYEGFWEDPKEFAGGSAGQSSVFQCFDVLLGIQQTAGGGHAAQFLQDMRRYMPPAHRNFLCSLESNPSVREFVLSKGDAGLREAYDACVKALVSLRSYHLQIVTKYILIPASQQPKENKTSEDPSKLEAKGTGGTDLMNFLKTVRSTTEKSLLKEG

SMILES | IC50 [nM]
CCC(CC(=O)O)c1ccc(N2CCN(C(=O)OC(C)(C)C)CC2)c(Nc2ccc(C#N)cc2)c1 (single isomer, unassigned) [Example 674 Enantiomer 2, 3-(4-(4-(tert-Butoxycarbonyl)piperazin-1-yl)-3-((4-cyanophenyl)amino)phenyl)pentanoic acid] | > 50
CCOc1ncc(Nc2cc(C(CC)CC(=O)O)ccc2N2CCN(C(=O)OC(C)(C)C)CC2)cn1 (single isomer, unassigned) [Example 675, 3-(4-(4-(tert-Butoxycarbonyl)piperazin-1-yl)-3-((2-ethoxypyrimidin-5-yl)amino)phenyl)pentanoic acid] | > 50
COCC(CC(=O)O)c1ccc(N(CC2CC2)C2CCOCC2)c(Nc2ccc(C(N)=O)nc2)c1 (single isomer, unassigned) [Example 693, 3-(3-((6-carbamoylpyridin-3-yl)amino)-4-((cyclopropylmethyl) (tetrahydro-2H-pyran-4-yl)amino)phenyl)-4-methoxybutanoic acid] | > 50
CC(CC(=O)O)c1ccc(N2C[C@@H](C)O[C@@H](C)C2)c(NC(=O)Nc2ccc(Cl)cc2F)c1 (single isomer, unassigned) [Example 749 Enantiomer 1] | > 50
CC(CC(=O)O)c1ccc(N2C[C@@H](C)O[C@@H](C)C2)c(NC(=O)Nc2ccc(C#N)cc2)c1 (single isomer, unassigned) [Example 750] | > 50
Cc1ccc(NC(=O)Nc2cc(C(C)CC(=O)O)ccc2N2C[C@@H](C)O[C@@H](C)C2)cc1 (single isomer, unassigned) [Example 751] | > 50
CCN(c1cc(F)c([C@@H](COC)CC(=O)O)cc1NC(=O)Nc1ccc(C#N)cc1)C1CCOCC1 (single isomer, unassigned) [Example 849, 3-(5-(3-(4-Cyanophenyl)ureido)-4-(ethyl(tetrahydro-2H-pyran-4-yl)amino)-2-fluorophenyl)-4-methoxybutanoic acid] | > 50
CCC(CC(=O)O)c1cc(Nc2ccc(C#N)cn2)c(N(CC)C2CCOCC2)cc1F (single isomer, unassigned) [Example 857, 3-(5-((5-cyanopyridin-2-yl)amino)-4-(ethyl(tetra-hydro-2H-pyran-4-yl)amino)-2-fluorophenyl) pentanoic acid] | < 50
CCC(CC(=O)O)c1ccc(N(C)C2CCOCC2)c(Nc2ccc(C#N)cc2)c1 (single isomer, unassigned) [Example 866, 3-(3-((4-Cyanophenyl)amino)-4-(methyl(tetrahydro-2H-pyran-4-yl)amino)phenyl)pentanoic acid] | < 50
CCC(CC(=O)O)c1ccc(N(C)C2CCOCC2)c(Nc2cnc(OC)nc2)c1 (single isomer, unassigned) [Example 868, 3-(3-((2-methoxy-pyrimidin-5-yl)amino)-4-(methyl (tetrahydro-2H-pyran-4-yl)amino)phenyl) pentanoic acid] | < 50
CCOc1ncc(Nc2cc(C(CC)CC(=O)O)ccc2N(C)C2CCOCC2)cn1 (single isomer, unassigned) [Example 869, 3-(3-((2-ethoxy-pyrimidin-5-yl)amino)-4-(methyl (tetrahydro-2H-pyran-4-yl)amino)phenyl) pentanoic acid] | < 50

Continued, values first:

IC50 [nM] | SMILES
< 5 | CCN(c1cc(F)c([C@@H](COC)CC(=O)O)cc1Nc1ccc(C#N)cc1)C1CCOCC1 (single isomer, unassigned) [Example 843, 3-(5-((4-Cyanophenyl)amino)-4-(ethyl(tetrahydro-2H-pyran-4-yl)amino)-2-fluorophenyl)-4-methoxybutanoic acid]
< 5 | CCN(c1cc(F)c(C(COC)CC(=O)O)cc1Nc1ccc(C#N)c(F)c1)C1CCOCC1 (single isomer, unassigned) [Example 846, 3-(5-((4-cyano-3-fluorophenyl)amino)-4-(ethyl (tetrahydro-2H-pyran-4-yl)amino)-2-fluorophenyl)-4-methoxybutanoic acid]
< 5 | CCN(c1cc(F)c(C(COC)CC(=O)O)cc1Nc1ccc(C#N)cc1F)C1CCOCC1 (single isomer, unassigned) [Example 847, 3-(5-((4-cyano-2-fluorophenyl)amino)-4-(ethyl (tetrahydro-2H-pyran-4-yl)amino)-2-fluorophenyl)-4-methoxybutanoic acid]
< 5 | CCN(c1cc(F)c([C@@H](COC)CC(=O)O)cc1NC(=O)Nc1ccc(Cl)cc1F)C1CCOCC1 (single isomer, unassigned) [Example 848, 3-(5-(3-(4-Chloro-2-fluorophenyl)ureido)-4-(ethyl(tetrahydro-2H-pyran-4-yl)amino)-2-fluorophenyl)-4-methoxybutanoic acid]
< 5 | CCN(c1cc(F)c([C@H](COC)CC(=O)O)cc1Nc1ccc(C#N)cc1)C1CCOCC1 (single isomer, unassigned) [Example 850, 3-(5-((4-Cyanophenyl)amino)-4-(ethyl(tetrahydro-2H-pyran-4-yl)amino)-2-fluorophenyl)-4-methoxybutanoic acid]
< 50 | CCN(c1cc(F)c(C(COC)CC(=O)O)cc1NC(=O)Nc1ccc(Cl)cc1F)C1CCOCC1 (single isomer, unassigned) [Example 855, 3-(5-(3-(4-Chloro-2-fluorophenyl)ureido)-4-(ethyl(tetrahydro-2H-pyran-4-yl)amino)-2-fluorophenyl)-4-methoxybutanoic acid]
< 5 | CCC(CC(=O)O)c1cc(Nc2ccc(Cl)cc2)c(N(CC)C2CCOCC2)cc1F (single isomer, unassigned) [Example 856, 3-(5-((4-Chlorophenyl)amino)-4-(ethyl(tetrahydro-2H-pyran-4-yl)amino)-2-fluorophenyl)pentanoic acid]
< 5 | CCC(CC(=O)O)c1cc(Nc2cnc(OCC3CC3)nc2)c(N(CC)C2CCOCC2)cc1F (single isomer, unassigned) [Example 858, 3-(5-((2-(cyclopropyl-methoxy)pyrimidin-5-yl)amino)-4-(ethyl(tetra-hydro-2H-pyran-4-yl)amino)-2-fluorophenyl) pentanoic acid]
< 5 | CCC(CC(=O)O)c1cc(Nc2cnc(OC)nc2)c(N(CC)C2CCOCC2)cc1F (single isomer, unassigned) [Example 859, 3-(4-(ethyl (tetrahydro-2H-pyran-4-yl)amino)-2-fluoro-5-((2-methoxy-pyrimidin-5-yl)amino)phenyl) pentanoic acid]
< 5 | CCOc1ncc(Nc2cc(C(CC)CC(=O)O)c(F)cc2N(CC)C2CCOCC2)cn1 (single isomer, unassigned) [Example 860, 3-(5-((2-ethoxy-pyrimidin-5-yl)amino)-4-(ethyl(tetra-hydro-2H-pyran-4-yl)amino)-2-fluorophenyl) pentanoic acid]
< 5 | CCC(CC(=O)O)c1cc(Nc2ccc(C#N)cn2)c(N(CC)C2CCOCC2)cc1F (single isomer, unassigned) [Example 862, 3-(5-((5-cyanopyridin-2-yl)amino)-4-(ethyl (tetrahydro-2H-pyran-4-yl)amino)-2-fluorophenyl) pentanoic acid]
< 5 | CCC(CC(=O)O)c1ccc(N(C)C2CCOCC2)c(Nc2ccc(Cl)cc2)c1 (single isomer, unassigned) [Example 867, 3-(3-((4-Chlorophenyl)amino)-4-(methyl(tetrahydro-2H-pyran-4-yl)amino)phenyl)pentanoic acid]
